A word on the Emax: it is the greatest response seen or fitted, relative to the assay's reference. The term EC50 denotes the concentration at which the effect is half-maximal.

The values below come from PMC5908784, “Extracellular loops 2 and 3 of the calcitonin receptor selectively modify agonist binding and efficacy” (Biochemical Pharmacology, 2018).

What all share (assay): IP1 accumulation
Common to all, as to type: cell-based
What all share (conditions): mean ± S.E.M.; for Emax: IP1 maximal response, SEM

The target in one assay is T1, hCTR G369A (Homo sapiens, UniProt P30988, G369A).
T1 construct: c-Myc (N); expressed in transfected cells
T1 sequence (P30988 25-474 G369A): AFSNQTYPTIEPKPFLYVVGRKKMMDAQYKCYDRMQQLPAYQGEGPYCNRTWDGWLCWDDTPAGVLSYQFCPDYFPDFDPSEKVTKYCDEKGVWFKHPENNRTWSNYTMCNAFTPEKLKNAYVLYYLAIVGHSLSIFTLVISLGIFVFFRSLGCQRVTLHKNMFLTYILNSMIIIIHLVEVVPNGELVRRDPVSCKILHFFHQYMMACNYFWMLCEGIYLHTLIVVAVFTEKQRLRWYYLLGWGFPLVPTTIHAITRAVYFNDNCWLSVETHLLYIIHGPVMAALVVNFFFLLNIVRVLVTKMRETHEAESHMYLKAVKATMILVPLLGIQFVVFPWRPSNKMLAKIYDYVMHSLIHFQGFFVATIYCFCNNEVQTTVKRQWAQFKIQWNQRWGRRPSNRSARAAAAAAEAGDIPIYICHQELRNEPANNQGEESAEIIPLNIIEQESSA
How it is done: (§1) Cells (2.5 × 10^4 cells/well) were plated into 96 well trays and cultured overnight. Cells were stimulated with increasing concentration of ligands for 60 min in the presence of LiCl. Samples were lysed and endogenous IP1 was measured using an IP-One HTRF® assay kit (CisBio) as specified by the manufacturer. Data were normalized to the maximal response elicited by 100 μM of ATP.
(§2) Data were corrected for radioligand occupancy using the Cheng-Prusoff equation in Prism; as such data are reported as pKi. Emax and EC50 were estimated from concentration-response curves using with a 3-parameter logistic equation in Prism (v7). These values are a composite of functional affinity, efficacy and stimulus response coupling. […] Significance was accepted at P < 0.05.

Another assay has as its target T2, hCTR K366A (Homo sapiens, UniProt P30988, K366A).
T2 construct: c-Myc (N); expressed in transfected cells
T2 sequence (P30988 25-474 K366A): T1 sequence (P30988 25-474 G369A) with K342A, A345G
As for the experimental part: as §1, §2

For another assay, the target named is T3, hCTR N365A (Homo sapiens, UniProt P30988, N365A).
T3 construct: c-Myc (N); expressed in transfected cells
T3 sequence (P30988 25-474 N365A): T1 sequence (P30988 25-474 G369A) with N341A, A345G
How it is done: as §1, §2

The next assay concerns the target T4, hCTR S364A (Homo sapiens, UniProt P30988, S364A).
T4 construct: c-Myc (N); expressed in transfected cells
T4 sequence (P30988 25-474 S364A): T1 sequence (P30988 25-474 G369A) with S340A, A345G
As for the experimental part: as §1, §2

A further assay has as its target T5, hCTR V283A (Homo sapiens, UniProt P30988, V283A).
T5 construct: expressed in transfected cells
T5 sequence (P30988 25-474 V283A): T1 sequence (P30988 25-474 G369A) with V259A, A345G
As for the experimental part:
as §1, §2

[1] abbreviates: IP1, CV1-FlpIn cells, 60 min, LiCl.

Positions count from the first letter of the chain named. Where a SMILES comes first, the peptide text is derived from it. Bridges are numbered along the chain shown (N, C = ends).

Consider `CC(C)C[C@H](NC(=O)[C@H](CCCCN)NC(=O)CNC(=O)[C@H](CC(C)C)NC(=O)[C@@H](NC(=O)[C@@H]1CSSC[C@H](N)C(=O)N[C@@H](CO)C(=O)N[C@@H](CC(N)=O)C(=O)N[C@@H](CC(C)C)C(=O)N[C@@H](CO)C(=O)N[C@@H]([C@@H](C)O)C(=O)N1)C(C)C)C(=O)N[C@@H](CO)C(=O)N[C@@H](CCC(N)=O)C(=O)N[C@@H](CCC(=O)O)C(=O)N[C@@H](CC(C)C)C(=O)N[C@@H](Cc1c[nH]cn1)C(=O)N[C@@H](CCCCN)C(=O)N[C@@H](CC(C)C)C(=O)N[C@@H](CCC(N)=O)C(=O)N[C@H](C(=O)N[C@@H](Cc1ccc(O)cc1)C(=O)N1CCC[C@H]1C(=O)N[C@@H](CCCNC(=N)N)C(=O)N[C@H](C(=O)N[C@@H](CC(N)=O)C(=O)N[C@H](C(=O)NCC(=O)N[C@@H](CO)C(=O)NCC(=O)N[C@H](C(=O)N1CCC[C@H]1C(N)=O)[C@@H](C)O)[C@@H](C)O)[C@@H](C)O)[C@@H](C)O` [sCT], for which the Emax on hCTR G369A amounted to 97 ± 7%; at hCTR K366A it was 93 ± 5%; on hCTR N365A, 66 ± 4%; on hCTR S364A it was 87 ± 6%; at hCTR V283A it was 115 ± 6%.

`CSCC[C@H](NC(=O)CNC(=O)[C@H](CO)NC(=O)[C@H](Cc1ccccc1)NC(=O)[C@H](CCCNC(=N)N)NC(=O)[C@H](Cc1c[nH]cn1)NC(=O)[C@H](Cc1ccccc1)NC(=O)[C@H](CC(N)=O)NC(=O)[C@H](CC(N)=O)NC(=O)[C@H](CC(C)C)NC(=O)[C@H](CC(N)=O)NC(=O)[C@H](CCCNC(=N)N)NC(=O)[C@H](Cc1c[nH]c2ccccc12)NC(=O)[C@H](Cc1ccc(O)cc1)NC(=O)[C@H](C)NC(=O)[C@H](CO)NC(=O)[C@H](CC(C)C)NC(=O)[C@@H](NC(=O)[C@@H]1CSSC[C@H](N)C(=O)N[C@@H](CO)C(=O)N[C@@H](CC(N)=O)C(=O)N[C@@H](CC(C)C)C(=O)N[C@@H](CO)C(=O)N[C@@H]([C@@H](C)O)C(=O)N1)C(C)C)C(=O)NCC(=O)N[C@@H](Cc1ccccc1)C(=O)NCC(=O)N1CCC[C@H]1C(=O)N[C@@H](CCC(=O)O)C(=O)N[C@H](C(=O)N1CCC[C@H]1C(N)=O)[C@@H](C)O` [pCT] (H-CSNLSTCVLSAYWRNLNNFHRFSGMGFGPETP-NH2; disulfide 1-7): the EC50 was 7.59 nM on hCTR G369A (setting [1]); 1.48 nM on hCTR K366A (setting [1]); 2.24 nM on hCTR N365A (setting [1]); 6.92 nM at hCTR S364A (setting [1]); 6.17 nM on hCTR V283A (setting [1]). Also, the maximal response (Emax) on hCTR G369A turned out to be 110 ± 6%; on hCTR K366A it was 91 ± 6%; at hCTR N365A, 68 ± 6%; on hCTR S364A, 93 ± 6%; on hCTR V283A it was 100 ± 5%.

Turning to `CC[C@H](C)[C@H](NC(=O)[C@H](C)NC(=O)[C@@H](NC(=O)[C@H](CCC(N)=O)NC(=O)[C@@H]1CCCN1C(=O)[C@H](Cc1ccccc1)NC(=O)[C@@H](NC(=O)[C@H](Cc1c[nH]cn1)NC(=O)[C@H](Cc1ccccc1)NC(=O)[C@H](CCCCN)NC(=O)[C@H](CC(N)=O)NC(=O)[C@H](Cc1ccccc1)NC(=O)[C@H](CC(=O)O)NC(=O)[C@H](CCC(N)=O)NC(=O)[C@@H](NC(=O)[C@H](Cc1ccc(O)cc1)NC(=O)[C@@H](NC(=O)CNC(=O)[C@H](CC(C)C)NC(=O)[C@H](CCSC)NC(=O)[C@@H]1CSSC[C@H](N)C(=O)NCC(=O)N[C@@H](CC(N)=O)C(=O)N[C@@H](CC(C)C)C(=O)N[C@@H](CO)C(=O)N[C@@H]([C@@H](C)O)C(=O)N1)[C@@H](C)O)[C@@H](C)O)[C@@H](C)O)[C@@H](C)O)C(=O)NCC(=O)N[C@H](C(=O)NCC(=O)N[C@@H](C)C(=O)N1CCC[C@H]1C(N)=O)C(C)C` [hCT], the maximal effect (Emax) is 148 ± 10% at hCTR G369A; 121 ± 6% at hCTR K366A; 81 ± 6% at hCTR N365A; 93 ± 8% on hCTR S364A; 67 ± 6% at hCTR V283A.
